What follows are compounds tested on Aβ42 (assay: In vitro cell screening assay; quantification of Aβ (1-42) peptide by sandwich ELISA). Conditions: Human neuroglioma H4 cells stably expressing human wild type APP751; compounds 0.003-10 μM, incubated overnight (16-18 h); Aβ42 in supernatant by sandwich ELISA; normalized to DMSO and DAPT; read-out: Aβ42 H4 Prot Fre IC50.
Type: cell-based
Protocol: Human neuroglioma H4 cells were transfected with a pcDNA3.1 plasmid expressing human wild type APP751 cDNA and a stable cell line was generated using G418 selection. Cells were plated at 15,000 cells/well in Costar 96-well plates and placed at 37° C. and 5% CO2. Six hours after plating, cells were washed three times with Pro293™ chemically defined medium, followed by addition of compounds (0.003-10 μM, final DMSO concentration of 0.33%). Plates were incubated overnight (16-18 h) and supernatant was removed for quantification of Aβ peptides by sandwich ELISA. Cytotoxicity was evaluated using Cell-Titer 96W AQueous One Solution Cell Proliferation Assay according to the manufacturer's protocol.
Aβ peptide levels were quantified by sandwich ELISA. 96-well plates were coated with C-terminal specific Aβ antibodies recognizing either Aβ37, Aβ38, Aβ40, Aβ42, Aβ43 or a N-terminal specific Aβ antibody to detect Aβ 1-x. Plates were then blocked overnight at 4° C. with 1% bovine serum albumin (BSA) in PBS-T. Plates were washed and 100 μl of cultured cell supernatant or synthetic Aβ peptide standards and a detection antibody (4G8-HRP) were applied to the blocked plate and incubated overnight at 4° C. The next day, wells were washed before the addition of detection substrate (TMB peroxidase). Plates were then read for absorbance at 450 nm on a Molecular Devices SpectraMax M5e Microplate Reader.
Compound-treated samples were normalized to samples treated with DMSO alone (no inhibition) and to samples treated with DAPT. IC50 values were calculated from values reported as percent of DMSO controls using nonlinear regression, based on a sigmoidal dose—response (variable slope) model. […] used for calculation.

First: COc1nc(C2=NOC(C)C(c3cccc(Cl)c3)N2)ccc1-n1cnc(Cl)c1 (single isomer, unassigned; (+)) [Example 47B, (+)-3-(5-(4-chloro-1H-imidazol-1-yl)-6-methoxypyridin-2-yl)-5-(3-chlorophenyl)-6-methyl-5,6-dihydro-4H-1,2,4-oxadiazine]
Second: COc1nc(C2=NOC(C)C(c3cccc(Cl)c3)N2)ccc1-n1cnc(C)n1 (single isomer, unassigned; (+)) [Example 53B, (+)-5-(3-chlorophenyl)-3-(6-methoxy-5-(3-methyl-1H-1,2,4-triazol-1-yl)pyridin-2-yl)-6-methyl-5,6-dihydro-4H-1,2,4-oxadiazine]
The IC50 of the first is 4.8-fold lower: 36.2 nM for the first, 172 nM for the second.

`COc1nc(C2=NOC(C)C(c3ccc(Cl)cc3)N2)ccc1-c1ccnc(C)c1` (single isomer, unassigned; (+)) [Example 48B, (+)-5-(4-chlorophenyl)-3-(2-methoxy-2′-methyl-[3,4′-bipyridin]-6-yl)-6-methyl-5,6-dihydro-4H-1,2,4-oxadiazine] and `COc1nc(C2=NOC(C)C(c3cccc(Cl)c3)N2)ccc1-c1ccnc(C)c1` (single isomer, unassigned; (+)) [Example 49B, (+)-5-(3-chlorophenyl)-3-(2-methoxy-2′-methyl-[3,4′-bipyridin]-6-yl)-6-methyl-5,6-dihydro-4H-1,2,4-oxadiazine] are within 1.5-fold of each other in IC50: 18.2 nM for the first, 15.8 nM for the second.

`COc1nc(C2=NOC(C)C(c3c4n(c5ccc(Cl)cc35)CCOC4)N2)ccc1-n1cnc(C)c1` (single isomer, unassigned; (+)) [Example 50A, (+)-8-chloro-10-(3-(6-methoxy-5-(4-methyl-1H-imidazol-1-yl)pyridin-2-yl)-6-methyl-5,6-dihydro-4H-1,2,4-oxadiazin-5-yl)-3,4-dihydro-1H-[1,4] oxazino [4,3-a] indole] and `COc1nc(C2=NOC(C)C(c3cn(C)c4ccc(F)c(F)c34)N2)ccc1-n1cnc(C)c1` (single isomer, unassigned; (+)) [Example 52B, (+)-5-(4,5-difluoro-1-methyl-1H-indol-3-yl)-3-(6-methoxy-5-(4-methyl-1H-imidazol-1-yl)pyridin-2-yl)-6-methyl-5,6-dihydro-4H-1,2,4-oxadiazine] are within 1.5-fold of each other in IC50: 3.2 nM for the first, 2.9 nM for the second.

`COc1nc(C2=NOC(C)C(c3c4n(c5ccc(Cl)cc35)CCOC4)N2)ccc1-n1cnc(C)c1` (single isomer, unassigned; (+)) [Example 50D, (+)-8-chloro-10-(3-(6-methoxy-5-(4-methyl-1H-imidazol-1-yl)pyridin-2-yl)-6-methyl-5,6-dihydro-4H-1,2,4-oxadiazin-5-yl)-3,4-dihydro-1H-[1,4] oxazino [4,3-a] indole] and `COc1nc(C2=NOC(C)C(c3cn(C)c4ccc(F)c(F)c34)N2)ccc1-n1cnc(C)c1` (single isomer, unassigned; (+)) [Example 52C, (+)-5-(4,5-difluoro-1-methyl-1H-indol-3-yl)-3-(6-methoxy-5-(4-methyl-1H-imidazol-1-yl)pyridin-2-yl)-6-methyl-5,6-dihydro-4H-1,2,4-oxadiazine] are within 1.5-fold of each other in IC50: 6.3 nM for the first, 5.8 nM for the second.

First: COc1nc(C2=NOC(C)C(c3cn(C)c4ncc(F)c(F)c34)N2)ccc1-n1cnc(C)c1 (single isomer, unassigned; (+)) [Example 51A, (+)-5-(4,5-difluoro-1-methyl-1H-pyrrolo [2,3-b]pyridin-3-yl)-3-(6-methoxy-5-(4-methyl-1H-imidazol-1-yl)pyridin-2-yl)-6-methyl-5,6-dihydro-4H-1,2,4-oxadiazine]
Second: COc1nc(C2=NOC(C)C(c3cn(C)c4ncc(Cl)c(F)c34)N2)ccc1-n1cnc(C)c1 (single isomer, unassigned; (+)) [Example 62A, (+)-5-(5-chloro-4-fluoro-1-methyl-1H-pyrrolo [2,3-b]pyridin-3-yl)-3-(6-methoxy-5-(4-methyl-1H-imidazol-1-yl)pyridin-2-yl)-6-methyl-5,6-dihydro-4H-1,2,4-oxadiazine]
The IC50 of the first is 2.7-fold lower: 11.7 nM for the first, 31.7 nM for the second.

Compared with `COc1nc(C2=NOC(C)C(c3cn(C)c4ncc(F)c(F)c34)N2)ccc1-n1cnc(C)c1` (single isomer, unassigned; (+)) [Example 51C, (+)-5-(4,5-difluoro-1-methyl-1H-pyrrolo [2,3-b]pyridin-3-yl)-3-(6-methoxy-5-(4-methyl-1H-imidazol-1-yl)pyridin-2-yl)-6-methyl-5,6-dihydro-4H-1,2,4-oxadiazine], `COc1nc(C2=NOC(C3CC3)C(c3cn(C)c4ncc(F)c(F)c34)N2)ccc1-n1cnc(C)c1` (single isomer, unassigned; (+)) [Example 60A, (+)-6-cyclopropyl-5-(4,5-difluoro-1-methyl-1H-pyrrolo [2,3-b]pyridin-3-yl)-3-(6-methoxy-5-(4-methyl-1H-imidazol-1-yl)pyridin-2-yl)-5,6-dihydro-4H-1,2,4-oxadiazine] is 2.7-fold lower in IC50: 975 nM for the first, 367 nM for the second.

First: COc1nc(C2=NOC(C)C(c3cn(C)c4ncc(F)c(F)c34)N2)ccc1-n1cnc(C)c1 (single isomer, unassigned; (+)) [Example 51D, (+)-5-(4,5-difluoro-1-methyl-1H-pyrrolo [2,3-b]pyridin-3-yl)-3-(6-methoxy-5-(4-methyl-1H-imidazol-1-yl)pyridin-2-yl)-6-methyl-5,6-dihydro-4H-1,2,4-oxadiazine]
Second: COc1nc(C2=NOC(C)C(c3cn(C)c4ncc(Cl)cc34)N2)ccc1-n1cnc(C)c1 (single isomer, unassigned; (+)) [Example 54B, (+)-5-(5-chloro-1-methyl-1H-pyrrolo [2,3-b]pyridin-3-yl)-3-(6-methoxy-5-(4-methyl-1H-imidazol-1-yl)pyridin-2-yl)-6-methyl-5,6-dihydro-4H-1,2,4-oxadiazine]
The IC50 of the first is 11-fold higher: 68.9 nM for the first, 6.3 nM for the second. The second is the more potent here.

First: COc1nc(C2=NOC(C)C(c3cn(C)c4ncc(Cl)cc34)N2)ccc1-n1cnc(C)c1 (single isomer, unassigned; (+)) [Example 54D, (+)-5-(5-chloro-1-methyl-1H-pyrrolo [2,3-b]pyridin-3-yl)-3-(6-methoxy-5-(4-methyl-1H-imidazol-1-yl)pyridin-2-yl)-6-methyl-5,6-dihydro-4H-1,2,4-oxadiazine]
Second: COc1nc(C2=NOC(C)C(c3cn(C)c4ncc(C5CC5)cc34)N2)ccc1-n1cnc(C)c1 (single isomer, unassigned; (+)) [Example 56A, (+)-5-(5-cyclopropyl-1-methyl-1H-pyrrolo [2,3-b]pyridin-3-yl)-3-(6-methoxy-5-(4-methyl-1H-imidazol-1-yl)pyridin-2-yl)-6-methyl-5,6-dihydro-4H-1,2,4-oxadiazine]
The IC50 of the first is 150-fold lower: 5.1 nM for the first, 746 nM for the second. The first is the more potent here.

Compared with `COc1nc(C2=NOC(C)C(c3ccc(Cl)c(C(F)F)c3)N2)ccc1-n1cnc(C)c1` (single isomer, unassigned; (+)) [Example 55A, (+)-5-(4-chloro-3-(difluoromethyl)phenyl)-3-(6-methoxy-5-(4-methyl-1H-imidazol-1-yl)pyridin-2-yl)-6-methyl-5,6-dihydro-4H-1,2,4-oxadiazine], `COc1nc(C2=NOC(C)C(c3cn(C)c4ncc(C(F)(F)F)cc34)N2)ccc1-n1cnc(C)c1` (single isomer, unassigned; (-)) [44A or 45A, (−)-3-(6-methoxy-5-(4-methyl-1H-imidazol-1-yl)pyridin-2-yl)-6-methyl-5-(1-methyl-5-(trifluoromethyl)-1H-pyrrolo[2,3-b]pyridin-3-yl)-5,6-dihydro-4H-1,2,4-oxadiazine] is 15-fold higher in IC50: 11.6 nM for the first, 173 nM for the second.

First: COc1nc(C2=NOC(C)C(c3cn(C)c4ncc(C5CC5)cc34)N2)ccc1-n1cnc(C)c1 (single isomer, unassigned; (+)) [Example 56D, (+)-5-(5-cyclopropyl-1-methyl-1H-pyrrolo [2,3-b]pyridin-3-yl)-3-(6-methoxy-5-(4-methyl-1H-imidazol-1-yl)pyridin-2-yl)-6-methyl-5,6-dihydro-4H-1,2,4-oxadiazine]
Second: COc1nc(C2=NOC(C3CC3)C(c3cn(C)c4nccc(F)c34)N2)ccc1-n1cnc(C)c1 (single isomer, unassigned; (+)) [Example 63A, (+)-6-cyclopropyl-5-(4-fluoro-1-methyl-1H-pyrrolo [2,3-b]pyridin-3-yl)-3-(6-methoxy-5-(4-methyl-1H-imidazol-1-yl)pyridin-2-yl)-5,6-dihydro-4H-1,2,4-oxadiazine]
The IC50 of the first is 85-fold lower: 12.5 nM for the first, 1060 nM for the second. The first is the more potent here.

`COc1nc(C2=NOC(C3CC3)C(c3cc(F)cc(F)c3)N2)ccc1-n1cnc(C)c1` (single isomer, unassigned; (+)) [Example 59A, (+)-6-cyclopropyl-5-(3,5-difluorophenyl)-3-(6-methoxy-5-(4-methyl-1H-imidazol-1-yl)pyridin-2-yl)-5,6-dihydro-4H-1,2,4-oxadiazine] and `COc1nc(C2=NOC(C3CC3)C(c3cc4ccccc4o3)N2)ccc1-n1cnc(C)c1` (single isomer, unassigned; (+)) [Example 61A, (+)-5-(benzofuran-2-yl)-6-cyclopropyl-3-(6-methoxy-5-(4-methyl-1H-imidazol-1-yl)pyridin-2-yl)-5,6-dihydro-4H-1,2,4-oxadiazine] are within 1.5-fold of each other in IC50: 20.7 nM for the first, 16.8 nM for the second.

— patent US20170050980A1, “OXADIAZINE COMPOUNDS AND METHODS OF USE THEREOF” (FORUM Pharmaceuticals Inc., priority 2015, published 2017)
